What all share (assay): Protease Inhibition Assay
Test [1] deals with T1, Dimer of Gag-Pol polyprotein [489-587,Q496K,L499I,M525I,N526D,M535I,R546K,L552P,A560V,G562S,I573V,L579M,I582L] (Human immunodeficiency virus 1, UniProt P12497, A560V/G562S/I573V/I582L/L499I/L552P/L579M/M525I/M535I/N526D/Q496K/R546K).
T1 construct: 489-587
How it is done:
(§1) Assay of HIV protease inhibition was performed by peptide cleavage using the substrate Val-Ser-Gln-Asn-beta-naphthylalanine*Pro-Ile-Val. Products of the cleavage reaction were quantified by HPLC detection, and data were fit to nonlinear least squares equations for determination of steady-state Michaelis-Menten kinetics.

Test [2] has as its target T2, Dimer of Gag-Pol polyprotein [489-587,Q496K,L499I,M535I,I543V,Q547E,L552P,I553V,V566I,V571F,I573V,L579M,I582L] (Human immunodeficiency virus 1, UniProt P12497, I543V/I553V/I573V/I582L/L499I/L552P/L579M/M535I/Q496K/Q547E/V566I/V571F).
T2 construct: 489-587
How it is done: as §1

For test [3], the target named is T3, Dimer of Gag-Pol polyprotein [489-587,Q496K] (Human immunodeficiency virus 1, UniProt P12497, Q496K).
T3 construct: 489-587
The note with it: pH 5.5; 30 °C. As to the method:
as §1

Test [4] concerns the target T4, Dimer of Gag-Pol polyprotein [489-587,Q496K,L499I,N526S,R530K,M535I,I543V,I551V,L552P,A560V,V566I,V571A,L579M,I582L] (Human immunodeficiency virus 1, UniProt P12497, A560V/I543V/I551V/I582L/L499I/L552P/L579M/M535I/N526S/Q496K/R530K/V566I/V571A).
T4 construct: 489-587
How it is done:
as §1

pIC50: −log10 of the molar value.

Broadly, the pIC50 is the IC50 on a negative log10 scale, so that one unit is a factor of ten. Read a high pIC50 as a small IC50. Take `O=C(N[C@H]1c2ccccc2OC[C@H]1O)[C@H](Cc1cccnc1)C[C@H](O)CN1CCN(Cc2cc3ccsc3s2)C[C@H]1C(=O)NCC(F)(F)F` [(2S)-1-[(2S,4R)-2-hydroxy-4-{[(3S,4S)-3-hydroxy-3,4-dihydro-2H-1-benzopyran-4-yl]carbamoyl}-4-(pyridin-3-ylmethyl)butyl]-4-{thieno[2,3-b]thiophen-2-ylmethyl}-N-(2,2,2-trifluoroethyl)piperazine-2-carboxamide]: the pIC50 in test [1] was 9.37; in test [2] it was 8.30; in test [3] it was 10.52; in test [4], 8.49.

In the case of `O=C(N[C@H]1c2ccccc2OC[C@H]1O)[C@H](Cc1ccncc1)C[C@H](O)CN1CCN(Cc2cc3ccsc3s2)C[C@H]1C(=O)NCC(F)(F)F` [(2S)-1-[(2S,4R)-2-hydroxy-4-{[(3S,4S)-3-hydroxy-3,4-dihydro-2H-1-benzopyran-4-yl]carbamoyl}-4-(pyridin-4-ylmethyl)butyl]-4-{thieno[2,3-b]thiophen-2-ylmethyl}-N-(2,2,2-trifluoroethyl)piperazine-2-carboxamide], the pIC50 in test [1] was 8.92; in test [2], 7.70; in test [3], 10.15; in test [4] it was 8.32.
